Non-standard residues stand in square brackets, D forms with d. Residues, ends and D or L forms follow the SMILES beside them. *: point of attachment. X1 = O=C(O)CN1CCN(CC(=O)O)CCN([C@H](CCC(=O)*)C(=O)O)CCN(CC(=O)O)CC1; Benzoyl(4-SiFtBu2) = CC(C)(C)[Si](F)(c1ccc(C(=O)*)cc1)C(C)(C)C; Nle = CCCC[C@H](N)C(=O)O; dDap = NC[C@@H](N)C(=O)O

In series [1] the target is T1, CCK-2R (Rattus norvegicus, UniProt P30553).
T1 construct: CCK-2R expressing rat pancreatic cancer cells AR42J (CLS GmbH, Eppelheim,; host or cells: AR42J rat pancreatic cancer cells
T1 sequence (P30553 1-452): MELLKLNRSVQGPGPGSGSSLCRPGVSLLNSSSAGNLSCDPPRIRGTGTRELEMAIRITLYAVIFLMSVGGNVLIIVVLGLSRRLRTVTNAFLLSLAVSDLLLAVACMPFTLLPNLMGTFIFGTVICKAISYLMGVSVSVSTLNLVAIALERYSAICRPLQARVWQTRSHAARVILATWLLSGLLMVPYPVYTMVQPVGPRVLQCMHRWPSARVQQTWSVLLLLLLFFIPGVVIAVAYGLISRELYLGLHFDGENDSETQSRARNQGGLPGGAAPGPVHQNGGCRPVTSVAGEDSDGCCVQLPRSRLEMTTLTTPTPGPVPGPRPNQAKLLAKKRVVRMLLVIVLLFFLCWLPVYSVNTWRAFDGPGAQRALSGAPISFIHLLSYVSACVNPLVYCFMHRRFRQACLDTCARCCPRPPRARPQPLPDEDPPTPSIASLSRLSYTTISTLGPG
The series is described as follows: Competitive binding (IC50) on AR42J cells with [177Lu]Lu-DOTA-PP-F11N as radiolabelled reference. The settings on record: natLu-labelled peptide; AR42J cells 2.0 × 10^5/well, 3 h, 37 °C, [177Lu]Lu-DOTA-PP-F11N 0.3 pmol/well. As to the method:
Detailed description of all cell-based experiments is provided in the Supplementary Materials. In brief, competitive binding studies were conducted on AR42J cells (2.0 × 10^5 cells per 1 mL/well) via incubation at 37 °C for 3 h using [^177Lu]Lu-DOTA-PP-F11N (0.3 pmol) as a radiolabelled reference (n = 3).
Cell Culture. CCK-2R expressing rat pancreatic cancer cells AR42J (CLS GmbH, Eppelheim, Germany) were cultivated in monolayers in CELLSTAR ® cell culture flasks acquired from Greiner Bio-One GmbH (Frickenhausen, Germany) at 37 °C in a humidified atmosphere (5% CO2) using a HERAcell 150i-Incubator (Thermo Fisher Scientific Inc., Waltham, United States). As nutrient medium RPMI 1640 medium, supplemented with 5 mM L-Gln 5 mL non-essential amino acids (100×) and 10% FCS, was used. Furthermore, a Dulbecco’s PBS solution with 0.1% EDTA (v/v) was applied to detach the cells for cell passaging. The detached cells were counted using a Neubauer hemocytometer ( Paul Marienfeld, Lauda-Königshofen, Germany). In addition, all operations under sterile conditions were accomplished using a MSC-Advantage safety workbench (Thermo Fisher Scientific Inc., Waltham, United States).
Determination of IC50. AR42J cells (2.0 × 10^5 cells/well) were seeded into 24-well plates 24 ± 2 h prior to testing, using 1 mL of nutrient medium (RPMI 1640, 5 mM L-Gln, 5 mL non-essential amino acids (100×), 10% FCS). Cells were incubated at 37 °C in a humidified atmosphere (5% CO2).
After removal of the medium, each well was washed with 500 μL PBS. For the cell-based assay, 200 μL of nutrient medium (+5% BSA), [177Lu]Lu-DOTA-PP-F11N (25 μL, 0.3 pmol) as a radiolabeled reference and 25 μL of the peptide of interest in increasing concentrations (10−10 to 10−4 M) in triplicate were added to the cells. Thereafter, the assay was incubated for 3 h at 37 °C and thereafter, the supernatant was collected. The cells were washed with 300 μL PBS and the collected supernatant fractions were unified.
After lysis of the cells with NaOH (300 μL, 1 N) for 15 min, the respective wells were washed with NaOH (300 μL, 1 N) and both fractions were unified. The radioactivity of both, the supernatant and the lysed fractions was quantified using a γ-counter (PerkinElmer Inc., Waltham, United States ). The obtained data were evaluated via the GraphPad PRISM software ( GraphPad Software Inc., La Jolla, United States), which calculates the halfmaximal inhibitory concentration ( IC50) of the peptides. […]

A short description of series [2]: Lipophilicity, n-octanol/PBS (pH 7.4) distribution coefficient. The class given is physicochemical. The note with it: 177Lu-labelled peptide; n-octanol/PBS pH 7.4; read-out: logD7.4. As to the method: Lipophilicity (depicted as octanol-phosphate-buffered saline solution (PBS, pH = 7.4) distribution coefficient, logD7.4) was determined via dissolving the ^177Lu-labelled peptide (approx. 1 MBq) in a mixture (1/1, v/v) of n-octanol and PBS. The suspension was vortexed in a reaction vial (1.5 mL) for 3 min at RT and the vial was centrifuged at 9000× […] for 5 min (Biofuge 15, Heraus Sepatech GmbH, Osterode, Germany). 200 μL aliquots of both layers were measured separately in a γ-counter (Perkin Elmer, Waltham, MA, USA). The experiment was repeated at least five times.

The IC50 is the concentration needed to halve the response being measured. `CCCC[C@H](NC(=O)[C@H](Cc1c[nH]c2ccccc12)NC(=O)CNC(=O)[C@H](Cc1ccc(O)cc1)NC(=O)[C@H](C)NC(=O)[C@@H](CCC(=O)O)NC(=O)[C@@H](CCC(=O)O)NC(=O)[C@@H](CNC(=O)c1ccc([Si](F)(C(C)(C)C)C(C)(C)C)cc1)NC(=O)[C@@H](CCC(=O)O)NC(=O)[C@@H](CCC(=O)O)NC(=O)[C@@H](CCC(=O)O)NC(=O)[C@@H](CCC(=O)O)NC(=O)CC[C@H](C(=O)O)N1CCN(CC(=O)O)CCN(CC(=O)O)CCN(CC(=O)O)CC1)C(=O)N[C@@H](CC(=O)O)C(=O)N[C@@H](Cc1ccccc1)C(N)=O` [[nat/177Lu]Lu-(R)-DOTAGA-rhCCK-3, metal not drawn] (X1-[dE][dE][dE][dE][dDap](Benzoyl(4-SiFtBu2))[dE][dE]AYGW[Nle]DF-NH2) gave an IC50 in series [1] of 0.156 ± 0.004 µM. In series [2], the logD is -2.03 ± 0.1.

Source of the values: publication PMC9783573, “Introduction of a SiFA Moiety into the D-Glutamate Chain of DOTA-PP-F11N Results in Radiohybrid-Based CCK-2R-Targeted Compounds with Improved Pharmacokinetics In Vivo” (Pharmaceuticals, 2022).
